Series [1] relates to phospho-STAT3 (Y705). Put plainly: STAT3 phosphorylation in cells from CIA mice (flow cytometry, Western blot). The class given is cell-based. The note with it: splenic B cells from CIA mice, 33 nM, 30 minutes / 0-60 minutes. As for the experimental part:
FIG. 15. […] Flow cytometry was performed using the FACSAria II (Bectin Dickenson). […] Lysates were quantified for total protein using the Nanodrop, and verification was performed by BCA (Pierce). Lysates were loaded onto SDS-PAGE and transferred to PVDF (Millipore). Membranes were blotted for phospho-STAT3 (Y705) and beta-actin.
Cardiac glycosides were administered at endogenous levels (sub- and nano Molar) or therapeutic levels (nano Molar) to modulate transcription factor activity and gene expression. Alteration of STAT1 activity has been observed in Alzheimer's disease and susceptibility to lethal intracellular pathogenic diseases (Kitamura et al, 1997; Chapgier et al, 2009). Aberrant STAT2 levels have been linked to inflammatory disease such as Crohn's disease (CD), ulcerative colitis (UC) and inflammatory bowel disease (IBD), and cancers such as colorectal and skin cancers (Gamero et al, 2010). STAT3 signaling is a critical component of Th17-dependent autoimmune processes. […] Mice with targeted deletion of Stat3 in T cells are resistant to experimental autoimmune encephalomyelitis, which is a multiple sclerosis (MS) model. […] STAT phosphorylation can be assessed by phospho-flow cytometric analysis, Western immunoblot and ELISA of circulating PBMCs or of biopsied tissues.

The test system of series [2] is nuclear phospho-p65. Description: Western blot of nuclear phospho-p65 in CD40L-stimulated CIA B cells. The class given is cell-based, mice. To be noted: 33 nM for 1 h, 50 ng/mL CD40L. As for the experimental part:
FIG. 8. […] Values represent mean light units produced. Error bars represent SEM, and statistical significance was determined by unpaired T-test. Single and double asterisks represent P-values of 0.01 or 0.001, respectively. […] Samples were harvested at designated time points and were fractionated into nuclear and cytoplasmic lysates (Pierce). Lysates were quantified using BCA (Pierce), and were equally loaded according to total protein. Membranes were probed for levels of nuclear phospho-p65 (ReIA), phospho-ReIB, and histone (histone served as loading control and fractionation method control) and cytoplasmic degradation of IκBα (beta-tubulin served as loading control and fractionation method control).
HeLa cells were co-transfected with the reporter pNFκB-luc and control vector pTAL (Renilla) for 18 h prior to incubation with 0-500 nM cardiac glycoside for 6 h. Cells are stimulated with 50 ng/mL TNF. […] FIG. 8 B).

The subject of series [3] is collagen-induced arthritis (CIA) joints. The class given is in vivo, DBA1/J mice. To be noted: cross-sectioned ankle joints, CIA prevention groups. As for the experimental part:
FIG. 7. Cardiac glycosides reduce joint pathology in the CIA mouse model for rheumatoid arthritis. Blinded scoring was performed on histologic sections of joints harvested from mice at the end of a CIA prevention study (A-C). Joints derived from three representative mice belonging to each prevention group (A-C) were decalcified, fixed and stained with tolidine blue, followed by scoring by an examiner blinded to treatment status for the severity of synovitis (inflammation), pannus (growth of the synovial lining), and erosions of bone. (D-G) Joints derived from three representative mice belonging to each prevention group were decalcified, fixed, and stained with hematoxylin and eosin. Cross-sectioned ankle joints from vehicle (D), digitoxin (E), ouabain (F) and proscillaridin (G) treated mice are presented. Error bars represent SEM, and asterisks indicate P-values less than 0.05 by Mann-Whitney test.
In treatment studies, mice were randomly enrolled in treatment groups and treatment commenced when the average clinical score was at or above 2. […] Daily dosing commenced upon enrollment at the abovementioned concentrations. […] Double-blinded histopathology scoring was conducted of cross-sectioned joints taken from cardiac glycoside and vehicle recipients. […] The results obtained from these animal studies indicate that cardiac glycosides are effective at reducing the clinical manifestations of disease and reducing joint pathology in mice with collagen arthritis.
The effects of the different cardiac glycoside treatments on CIA pathology was analyzed by histological scoring. Inflammatory cell infiltrate, synovial hyperplasia, pannus formation and articular cartilage and bone deterioration were evaluated in sectioned paws of treated mice at specific time-points throughout the disease course. […] The ELISA was developed and read using BD ELISA development kit. […]

For series [4] the following is noted: CHCI3/16% aqueous methanol (MeOH); cited from earlier work.

SMILES strings stand for the structures.

Take `C[C@H]1O[C@@H](O[C@H]2[C@@H](O)C[C@H](O[C@H]3[C@@H](O)C[C@H](O[C@H]4CC[C@@]5(C)[C@H](CC[C@@H]6[C@@H]5CC[C@]5(C)[C@@H](C7=CC(=O)OC7)CC[C@]65O)C4)O[C@@H]3C)O[C@@H]2C)C[C@H](O)[C@@H]1O` [Digitoxin, digitoxin]: the “STAT3 phosphorylation (Y705)” value in series [1] is “stimulate STAT3 phosphorylation”. Further, the “amount of nuclear phospho-p65 following CD40L stimulation” value in series [2] is recorded as “significantly reduced”. For the same molecule, the “immune cell infiltrate into the joints (hematoxylin and eosin)” value in series [3] is listed as “decreased amounts of immune cell infiltrate”. For the same molecule, the “Partition Coefficient” value in series [4] is 96.5.

The values are drawn from US20140011755A1, “Cardiac Glycosides for Treating Autoimmune Disease” (Department of Veterans Affairs, priority 2010, published 2014).
